Measurements reported in article PMC7724566, “Prospects for Clinical Development of Stat5 Inhibitor IST5-002: High Transcriptomic Specificity in Prostate Cancer and Low Toxicity In Vivo” (Cancers, 2020).

Legend:
Stat5 [1] = experiment: Stat5 phosphorylation in CWR22Rv1 cells (IP/immunoblot); format: cell-based, human; conditions: 4 days
Description: (§1) In order to evaluate whether the phosphate group of IST5 is critical for IST5 activity in cell-based assays, we compared the potency of IST5 (Figure 4A) to that of IST5-M (IST5 without the phosphate group) (Figure 4B) in inhibiting phosphorylation of Stat5 in PC and CML cells. CML (K562) cells and PC (CWR22Rv1) cells were cultured for 4 days with increasing concentrations of IST5 and IST5-M (Figure 4C,D). […] Collectively, these finding indicate that IST5 and IST5-M have similar efficacies in inhibiting phosphorylation of Stat5 in both CML and PC cells.
(§2) Figure 4 IST5 and the IST5-derivative lacking the phosphate group (IST5-M), both, inhibit Stat5 phosphorylation in CML and prostate cancer cell line with high efficacy. (A), chemical structure of IST5-002 (IST5). (B), chemical structure of IST5-M (IST5 without the phosphate group. (C), IST5 and IST5-M both inhibit Stat5 phosphorylation in CML cells (K562) with high efficacy. K562 cells were treated with IST5 and IST5-M for 4 days at the concentrations indicated. Whole cell lysates (WCL) were immunoblotted with anti-pYStat5 mAb, anti-Stat5 mAb and anti-actin mAb as loading control. (D), IST5 and IST5-M, both, decrease Stat5 phosphorylation in PC cells (CWR22Rv1). CWR22Rv1 cells were treated with increasing concentrations of IST5 and IST5-M for 4 days. Stat5 was immunoprecipitated (IP) followed by immunoblotting (WB) with anti-pYStat5 mAb and anti-Stat5 mAb. Whole cell lysates (WCL) were immunoblotted with anti-actin mAb as loading control.
(§3) Cell pellets were solubilized in the lysis buffer (10 mM Tris-HCl (pH 7.6), 5 mM EDTA, 50 mM sodium chloride, 30 mM sodium pyrophosphate, 50 mM sodium fluoride, 1 mM sodium orthovanadate, 1% Triton X-100, 1 mM phenylmethylsulfonyl fluoride, 5 µg/mL aprotinin, 1 µg/mL pepstatin A and 2 µg/mL leupeptin), and protein concentrations of clarified cell lysates were determined by a simplified Bradford method (Bio-Rad, Hercules, CA, USA). The whole cell lysates were immunoprecipitated with polyclonal antibodies (Table S1) followed by incubation with protein A-Sepharose beads (GE Healthcare, Chicago, IL, USA). The cell lysates and immunoprecipitated proteins were separated on 4–12% SDS-PAGE (Life Technologies, Brown Deer, WI, USA) and transferred electrophoretically to polyvinylidene fluoride membrane (Millipore). For immunoblotting, blocking buffer was tris-buffered saline and tween 20 (TBST, 0.15 M NaCl; 0.1% Tween 20; 50 mM Tris, pH 8.0) with 3% bovine serum albumin (BSA). The immunoreaction with the specific antibodies (Table S1) was detected by horseradish peroxidase-conjugated secondary antibodies followed by enhanced chemiluminescence (GE Healthcare).

Stat5 [2] = target: T1, Stat5 (Homo sapiens, UniProt P42229); experiment: Native-gel-based Stat5 dimerization assay, CWR22Rv1 cells; format: cell-based; conditions: 1 µM, 6 h, Prl (10 nM) stimulated CWR22Rv1 cells, STAT5A-eYFP
T1 construct: expressed in transfected cells; host or cells: CWR22Rv1
T1 sequence (P42229 whole entry, species assumed): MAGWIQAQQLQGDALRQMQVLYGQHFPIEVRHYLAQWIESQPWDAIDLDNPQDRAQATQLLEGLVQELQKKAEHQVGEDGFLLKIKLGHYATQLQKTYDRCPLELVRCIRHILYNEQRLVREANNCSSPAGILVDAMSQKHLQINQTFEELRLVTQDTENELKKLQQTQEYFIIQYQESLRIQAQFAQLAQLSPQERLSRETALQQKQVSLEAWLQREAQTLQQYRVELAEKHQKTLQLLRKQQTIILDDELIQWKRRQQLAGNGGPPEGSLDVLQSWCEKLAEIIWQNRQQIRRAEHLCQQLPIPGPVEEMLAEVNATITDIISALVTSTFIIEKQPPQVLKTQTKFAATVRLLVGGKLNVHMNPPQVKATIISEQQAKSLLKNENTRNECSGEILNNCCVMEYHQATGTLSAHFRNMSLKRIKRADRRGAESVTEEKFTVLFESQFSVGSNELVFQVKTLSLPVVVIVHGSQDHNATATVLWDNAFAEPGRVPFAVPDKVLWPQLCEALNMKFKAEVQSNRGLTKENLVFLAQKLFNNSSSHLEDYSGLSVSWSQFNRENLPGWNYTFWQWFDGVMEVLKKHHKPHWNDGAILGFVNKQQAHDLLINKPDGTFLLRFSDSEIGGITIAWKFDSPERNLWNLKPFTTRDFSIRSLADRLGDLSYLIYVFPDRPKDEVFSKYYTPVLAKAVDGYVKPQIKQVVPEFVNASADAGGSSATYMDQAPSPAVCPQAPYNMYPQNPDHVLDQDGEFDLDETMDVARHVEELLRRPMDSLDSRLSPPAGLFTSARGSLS
From the text: Having established that IST5 and IST5-M both interrupt phosphorylation of Stat5, we next investigated the potency of IST5-M vs. IST5 in suppressing dimerization of Stat5 in PC cells. First, we performed a native Polyacrylamide Gel Electrophoresis (PAGE) based Stat5 dimerization assay established originally by Fahrenkamp et al., where CWR22Rv1 cells were transfected with STAT5A-eYFP (Stat5 wild type), STAT5A-N642H-eYFP (constitutive activated Stat5 by N642H mutation, as a positive control) or STAT3-eYFP (Stat3 wild type, as a negative control) constructs for 3 days (Figure 5A). CWR22Rv1 cells were starved for 16 h, pretreated with vanadate (1 mM) for 2 h, followed by treatment with vehicle, IST5 or IST5-M (1 µM) for 6 h and stimulation with Prl (10 nM) for 1 h.
Figure 5 Both IST5 and IST5-M suppress dimerization of Stat5 with similar efficacies in prostate cancer cells. (A), IST5 and IST5-M inhibit equally potently dimerization of Stat5 in native-gel-based Stat5 dimerization assay. […] Dimerization of Stat5 was analyzed by detection of the eYFP fluorescence of the native Coomassie gel. […] (E), differences in posttranslational modifications were detected between native and recombinant STAT5a using mass spectrometry. Native STAT5a from CWR22Rv1 cells and recombinant STAT5a from E. coli were gel-purified, digested using trypsin, and analyzed by bottom-up mass spectrometry. […]

Stat5 [3] = experiment: Stat5 phosphorylation in K562 cells (immunoblot); format: cell-based, human; conditions: 4 days
Description: as §1, §2, §3

Stat5 [4] = tested on: Stat5; set-up: method as in PMID 31548294; conditions: patients treated with enzalutamide (median 6 months); cited from earlier work

OCC1OC(n2cnc3c(NCc4ccccc4)ncnc32)C(O)C1O (stereo not drawn) [IST5-M]
inhibition of Stat5 phosphorylation (Stat5 [1]; 2 µM, CWR22Rv1 cells): 60–75% | IC50 (Stat5 [1]; read-out: IC50, inhibition of Stat5 phosphorylation, CWR22Rv1 PC cells): ~1300 nM | inhibition of Stat5 dimerization (Stat5 [2]): inhibited robustly | inhibition of Stat5 phosphorylation (Stat5 [3]; 2 µM, K562 cells): 75–90% | IC50 (Stat5 [3]; read-out: IC50, inhibition of Stat5 phosphorylation, K562 CML cells): ~1100 nM

CNC(=O)c1ccc(N2C(=S)N(c3ccc(C#N)c(C(F)(F)F)c3)C(=O)C2(C)C)cc1F [enzalutamide]
PC biopsies with significantly elevated levels of Stat5 activation (Stat5 [4]): 10/10
